These results are taken from patent US7879825B2, “Derivatives of [2-(8,9-dioxo-2,6-diazabicyclo[5.2.0]non-1(7)-en-2-yl)alkyl] phosphonic acid and methods of use thereof” (Wyeth LLC, priority 2003, dated 2011).

Marks after values point to notes of the source that are not given here.

Data set [1] has as its system PGE2-induced thermal hypersensitivity. The data set can be described thus: Reversal of prostaglandin E2 (PGE2)-induced thermal hypersensitivity, warm-water tail withdrawal. The class given is in vivo, Sprague-Dawley rats. The note with it: single oral (PO) dose before PGE2 injection into tail, assessed 30 min after PGE2, SEM in parentheses. On the procedure:
The compounds of the present invention were evaluated for their effectiveness to treat pain. […] The test methods used herein have been used by others skilled in the art to evaluate the effectiveness of compounds for relieving pain. See e.g., Bennett G J and Xie T K, A peripheral mononeuropathy in rat produces disorders of pain sensation like those seen in man, Pain 33: 87-107 (1988); Chaplan S R, Bach […], Chung J M and Yaksh T L, Quantitative assessment of tactile allodynia in the rat paw, J. Neurosci. Methods 53: 55-63 (1994); and Mosconi T and Kruger L, Fixed-diameter polyethylene cuffs applied to the rat sciatic nerve induce a painful neuropathy: ultrastructural morphometric analysis of axonal alterations Pain 64: 37-57 (1996). Individually housed Sprague-Dawley rats had free access to rat chow and water. A 12-h light/12-h dark cycle was in effect (lights on from 6:00 am to 6:00 pm). Animal maintenance and research were conducted in accordance with the guidelines provided by the National Institutes of Health Committee on Laboratory Animal Resources. These subjects were used in the tests below. The terminal 10 cm of the tail was placed into a thermos bottle containing water warmed to 38, 42, 46, 50 or 54° C. The latency in seconds for the animal to remove the tail from the water was used as a measure of nociception. […] Temperature-effect curves were generated before (baseline) and 30 minutes after the PGE2 injection. […] The ability of compounds to reverse PGE2-induced thermal hypersensitivity was assessed using a single dose time-course procedure. […] sensitivity was assessed 30 min after PGE2 injection. Data Analysis-The temperature that produced a half-maximal increase in the tail-withdrawal latency (i.e., T10) was calculated from each temperature-effect curve. The T10 was determined by interpolation from a line drawn between the point above and the point below 10 sec on the temperature-effect curve.

`O=c1c2c(c1=O)N(CCP(=O)(O)O)CCCN2` [Comparative 1, [2-(8,9-dioxo-2,6-diazabicyclo[5.2.0]non-1(7)-en-2-yl)ethyl]phosphonic acid, reference compound]: the results for the “Reversal of PGE2-induced thermal hypersensitivity, % MPE (±1 SEM)” value (“Reversal … % MPE (±1 SEM)” below) in data set [1] (10 mg/kg) and in data set [1] (30 mg/kg) were −4.7 (10.6)** % MPE and 44 (9.5) % MPE, respectively.
On to `O=C(OCOP(=O)(CCN1CCCNc2c1c(=O)c2=O)OCOC(=O)c1ccccc1)c1ccccc1` [Example 1, 3-{2-[8,9-Dioxo-2,6-diazabicyclo[5.2.0]non-1(7)-en-2-yl]ethyl}-3-oxido-7-oxo-7-phenyl-2,4,6-trioxa-3-phosphahept-1-yl benzoate], for which the “Reversal … % MPE (±1 SEM)” value in data set [1] (10 mg/kg) was 57.2 (4.7) % MPE; in data set [1] (30 mg/kg), 81 (3.4) % MPE.
As for `CCCC(CCC)C(=O)OCOP(=O)(CCN1CCCNc2c1c(=O)c2=O)OCOC(=O)C(CCC)CCC` [Example 2, 3-{2-[8,9-Dioxo-2,6-diazabicyclo[5.2.0]non-1(7)-en-2-yl]ethyl}-3-oxido-7-oxo-8-propyl-2,4,6-trioxa-3-Phosphaundec-1-yl 2-propylpentanoate], the “Reversal … % MPE (±1 SEM)” value in data set [1] (10 mg/kg) is recorded as 45.6 (13.9) % MPE; in data set [1] (30 mg/kg) it was 76.5 (3.3) % MPE.
As for `CC(C)(C)C(=O)OCOC(CCN1CCCNc2c1c(=O)c2=O)(O[PH2]=O)OC(=O)C(C)(C)C` (stereo not shown) [Example 3, 2,2-Dimethyl-propionic acid (2,2-dimethyl-propionyloxymethoxy)-[2-(8,9-dioxo-2,6-diaza-bicyclo[5.2.0]non-1(7)-en-2-yl)-ethyl]-phosphinoyloxymethyl ester], in data set [1] (30 mg/kg), the “Reversal … % MPE (±1 SEM)” value is recorded as 87.6 (3.3) % MPE.
In the case of `CC(OC(=O)C1CCCCC1)OP(=O)(CCN1CCCNc2c1c(=O)c2=O)OC(C)OC(=O)C1CCCCC1` (stereo not shown) [Example 4, 7-Cyclohexyl-3-{2-[8,9-dioxo-2,6-diazabicyclo[5.2.0]non-1(7)-en-2-yl]ethyl}-1,5-dimethyl-3-oxido-7-oxo-2,4,6-trioxa-3-phosphahept-1-yl cyclohexanecarboxylate], the “Reversal … % MPE (±1 SEM)” value in data set [1] (30 mg/kg) is reported as 78.9 (5.8) % MPE.
Take `CC(OC(=O)C1CCCCC1)OP(=O)(CCN1CCCNc2c1c(=O)c2=O)OC(C)OC(=O)C1CCCCC1` (stereo not shown) [Example 5, 7-cyclohexyl-3-{2-[8,9-dioxo-2,6-diazabicyclo[5.2.0]non-1(7)-en-2-yl]ethyl}-1,5-dimethyl-3-oxido-7-oxo-2,4,6-trioxa-3-phosphahept-1-yl cyclohexanecarboxylate]: the “Reversal … % MPE (±1 SEM)” value in data set [1] (30 mg/kg) is 55.9 (9.8) % MPE.
As usually defined, the melting point is the temperature, or range, at which the solid turns liquid. Regarding `O=C(OCOP(=O)(CCN1CCCNc2c1c(=O)c2=O)OCOC(=O)C1CCCCC1)C1CCCCC1` [Example 6, 7-Cyclohexyl-3-{2-[8,9-dioxo-2,6-diazabicyclo[5.2.0]non-1(7)-en-2-yl]ethyl}-3-oxido-7-oxo-2,4,6-trioxa-3-phosphahept-1-yl cyclohexanecarboxylate], the melting point was 64 to 65 °C. In data set [1] (30 mg/kg), the “Reversal … % MPE (±1 SEM)” value is 16.8 (6.8) % MPE.
`CC(C)OC(=O)OCOP(=O)(CCN1CCCNc2c1c(=O)c2=O)OCOC(=O)OC(C)C` [Example 7, [2-(8,9-Dioxo-2,6-diaza-bicyclo[5.2.0]non-1-(7)-en-2-yl)-ethyl]-phosphonic acid diiso propoxycarbonyloxymethyl ester]: the “Reversal … % MPE (±1 SEM)” value is reported as 47.0 (12.6) % MPE in data set [1] (10 mg/kg) and 77.5 (6.7) % MPE in data set [1] (30 mg/kg).
